Data on 89 molecules can be found in ChEMBL document CHEMBL3507680, “University of Dundee, Gates Library screen for HepG2 cell viability”.

A short description of this data set: Human HepG2 cell viability assay in 384 well format. Type of data set: toxicity, cell-based. More on the design: dose 125 nL, time 70.5 hour; cytotoxicity at 70.5 h: concentration not given beside the values. The note with it: HepG2 cells, read-out: Inhibition.
For the molecule `Cc1nc(-c2noc3ccc(C(=O)NCCN4CCOCC4)cc23)cs1`, the cytotoxicity at 70.5 h was -8.24%.
On to `Cc1cccc(N2CC[C@H]3[C@H]2CCN3C(=O)c2cnn(C)c2)n1`, for which the cytotoxicity at 70.5 h is -8.26%.
For `CC(C)N1CCc2ncn(C(C)C)c2C1C(=O)NCCN1CCCC1` (centres undefined), the cytotoxicity at 70.5 h is -7.38%.
Consider `Cc1nc(-c2noc3ccc(C(=O)NCCN(C)C)cc23)co1`, for which the cytotoxicity at 70.5 h was -7.57%.
As to `c1cc(CN2C[C@@H]3OCCN(CC4CCCO4)[C@@H]3C2)co1` (some centres undefined), the cytotoxicity at 70.5 h is -10.8%.
The figure for `CCS(=O)(=O)N1CCC2(CN(c3cc(OC)ncn3)C2)C1` is 12.1%; for `COc1cccc(N2CC3(CCN(c4ccncn4)C3)CC2=O)c1` (centres undefined) it is 14.6%.
On to `Cc1ccoc1C(=O)N1CCCc2c(c(=O)n(C)n2C)C1`, for which the cytotoxicity at 70.5 h is 11.9%.
As for `Cc1ccc(C(=O)N2CCCc3c(c(=O)n(C)n3C)C2)o1`, the cytotoxicity at 70.5 h came to 11.7%.
For `Cc1cc(C(=O)N2C[C@@H]3CCCO[C@@H]3[C@H](N3CCOCC3)C2)c(C)[nH]1`, the cytotoxicity at 70.5 h is -12.4%.
For `CC(C)n1cnc(C2CN(C)c3ccc(C(=O)NCC4CC4)cc32)n1` (centres undefined), the cytotoxicity at 70.5 h was -3.88%.
Regarding `c1cc(CN2CCc3nc(N4CCOCC4)nc(NC4CC4)c3C2)co1`, the cytotoxicity at 70.5 h is -10.6%.
Consider `CS(=O)(=O)N1CCc2ccc(=O)n(CC3CC3)c2CC1`, for which the cytotoxicity at 70.5 h is -7.85%.
For the molecule `COc1cccc(N2CC3(CCN(c4ccc(C)nn4)C3)CC2=O)c1` (centres undefined), the cytotoxicity at 70.5 h is -2.78%.
For the molecule `CN(C)C(=O)CN1C[C@H]2CCN(C(=O)c3ccncc3)CC[C@H]2S1(=O)=O`, the cytotoxicity at 70.5 h was -3.99%.
`CC(C)CC(=O)N1CC[C@@H]2CN(CC(=O)N(C)C)S(=O)(=O)[C@@H]2CC1`: the cytotoxicity at 70.5 h stood at 1.05%.
In the case of `CCS(=O)(=O)N1CCc2ccc(=O)n(CC3CC3)c2CC1`, the cytotoxicity at 70.5 h was -9.39%.
The figure for `CN(Cc1ccccc1)CC1CC2(CO1)CN(Cc1nccs1)C2` (centres undefined) is -6.93%; for `Cc1noc(C)c1C(=O)N1C[C@@H]2CCCO[C@@H]2[C@H](N(C)C)C1` it is -8.14%.
`COCCN1CCC2(CC1)CC(OCC1CC1)c1ccc(C)cc12` (centres undefined): the cytotoxicity at 70.5 h came to 5.78%.
Take `Cc1cc(C(=O)N2C[C@@H]3CCCO[C@@H]3[C@H](N(C)C(C)C)C2)c(C)[nH]1`: the cytotoxicity at 70.5 h is -6.48%.
Next, `Cc1cnc(N2CCCn3c(nnc3Cn3cccn3)C2)nc1`: 10.6%; `CCn1cc2c(n1)CN(S(=O)(=O)Cc1ccccc1)CC2COC` (centres undefined): 11.6%; `O=C(Cc1ccsc1)NC1CCc2c(ccc(=O)n2CC2CC2)C1` (centres undefined): 12%.
For `COCCC(=O)N1CC[C@@H](N2CCN(C)CC2)[C@@H]1Cc1ccccc1`, the cytotoxicity at 70.5 h is -1.48%.
`c1cnn([C@@H]2CN(Cc3nccs3)[C@@H]3CCCO[C@@H]32)c1`: the cytotoxicity at 70.5 h was -6.1%.
With `Cc1noc(C[C@@H]2COC[C@H]3CN(S(=O)(=O)C4CC4)C[C@@H]23)n1`, the cytotoxicity at 70.5 h is -5.01%.
Consider `Cc1noc(C[C@@H]2COC[C@H]3CN(S(C)(=O)=O)C[C@@H]23)n1`, for which the cytotoxicity at 70.5 h was -5.3%.
The figure for `CCOCc1cncc2c1CCN(S(=O)(=O)c1ccc(C)cc1)C2` is -2.29%; for `O=C(c1ncn2c1CNS(=O)(=O)c1ccccc1-2)N1CCCCCC1` it is 0.0876%; for `O=C(c1ncn2c1CNS(=O)(=O)c1ccccc1-2)N1CC=CC1` it is 1.87%.
Next, `CO[C@@H]1CC[C@H]2[C@H]1OCCN2C(=O)C1CCOCC1`: -15%; `CCN1CC2(CC1=O)CN(Cc1ccoc1)CCN(C(=O)C(C)C)C2` (centres undefined): -20.2%.
`CCOCC1CN(Cc2ccc(F)cc2)Cc2nn(CC3CC3)cc21` (centres undefined): the cytotoxicity at 70.5 h is -17.2%.
Turning to `CC(=O)N1CC[C@@]2(C(=O)Nc3ccccc3)CCN(S(C)(=O)=O)CC[C@@H]12`, the cytotoxicity at 70.5 h was -1.82%.
Next, `CC(C)NC(=O)N1CCN(C(=O)C(C)C)CC2(CC(=O)N(C)C2)C1` (centres undefined): 7.84%; `Cc1noc([C@H]2COC[C@H]3CN(C(=O)Cc4ccccc4F)C[C@H]32)n1`: -17%.
On to `CCOCC1COCCC12CCN(C(=O)CCOC)CC2` (centres undefined), for which the cytotoxicity at 70.5 h was -17.1%.
On to `COCC1COCCC12CCN(C(=O)Cc1cccc(OC)c1)CC2` (centres undefined), for which the cytotoxicity at 70.5 h was -11.4%.
As for `COCc1cnc2n1CCN(C(=O)C1=CCCC1)C2C` (centres undefined), the cytotoxicity at 70.5 h is -14.6%.
For `CCCS(=O)(=O)N1CC[C@H]2O[C@@H](c3nc(C)no3)CC[C@H]21`, the cytotoxicity at 70.5 h was -21.7%.
Turning to `CCS(=O)(=O)N1CCC2(COCc3cnc(N4CCOCC4)nc32)C1` (centres undefined), the cytotoxicity at 70.5 h is -6.84%.
Turning to `CC(C)NC(=O)N1CCC2(COCc3cnc(N4CCOCC4)nc32)C1` (centres undefined), the cytotoxicity at 70.5 h came to 2.23%.
Regarding `O=C(c1cnccn1)N1CCN(CC2CC2)c2ncccc2C1`, the cytotoxicity at 70.5 h was 5.88%.
Turning to `Cc1noc([C@H]2COC[C@H]3CN(C(=O)Cc4cccc(F)c4)C[C@H]32)n1`, the cytotoxicity at 70.5 h is -16.4%.
Turning to `CN(C)C(=O)C1OC2(CCN(C(=O)c3ccco3)CC2)c2ccccc21` (centres undefined), the cytotoxicity at 70.5 h was -16.7%.
With `Cc1noc([C@@H]2CC[C@@H]3[C@@H](CCN3S(=O)(=O)c3ccccc3)O2)n1`, the cytotoxicity at 70.5 h was -14.9%.
The figure for `Cc1nc(N2CCCC2)nc2c1CCN(C(=O)C1CCC1)CC2` is -12.5%; for `COc1ncccc1C(=O)N1CC[C@H]2C[C@@H](c3noc(C)n3)O[C@@H]2C1` it is -8.55%; for `Cn1cc(CN2CCC3(CC2)COC(COc2ccccn2)C3)cn1` (centres undefined) it is -14.7%.
As to `CC(C)NC(=O)C1CN(C(=O)CCc2ccccc2)CC12CCOCC2` (centres undefined), the cytotoxicity at 70.5 h was determined as 44.3%.
Next, `O=C(N[C@@H]1CN(Cc2ccccn2)[C@@H]2COC[C@@H]21)C1CCC1`: -1.02%; `O=C(c1c[nH]cn1)N1CCC(F)(F)C2(CCN(c3ncccn3)C2)C1` (centres undefined): -5.46%; `Cc1nc(CN2C[C@@H](NC(=O)C3CCC3)[C@H]3COC[C@H]32)cs1`: -5.49%.
The figure for `COCCN1CCCC12CCN(c1ncccn1)CC2` is -14.3%; for `CCN1C(=O)[C@H]2CN(CC(C)C)C[C@H]2C12CCN(S(C)(=O)=O)CC2` it is -6.33%; for `CN1CCN(c2ncnc3c2CCN(c2ncc(F)cn2)CC3)CC1` it is -1.02%.
Next, `Cn1cncc1CN1CCC2(CCCN2c2ncccn2)CC1`: -8.23%; `CCn1cc2c(n1)CN(S(=O)(=O)c1cccnc1)CC2COC` (centres undefined): 1.06%.
In the case of `c1csc(CN2C[C@@H](n3cccn3)[C@H]3OCCC[C@H]32)c1`, the cytotoxicity at 70.5 h is -3.02%.
Next, `O=C(NCC1CC[C@@H]2[C@@H]1OCCN2Cc1cccs1)c1ccco1` (some centres undefined): -0.679%; `COCCN1CCC2(CC1)CN(CCn1cccn1)C(=O)CO2`: 1.22%.
Regarding `CC(C)CC(=O)N1CC[C@H]2N(C)CC[C@@]2(C(=O)Nc2ccccc2)CC1`, the cytotoxicity at 70.5 h came to 36.5%.
On to `CCN1CC2(CC1=O)CN(Cc1ccco1)CCN(C(=O)C(C)C)C2` (centres undefined), for which the cytotoxicity at 70.5 h stood at 7.56%.
The figure for `O=C(NCc1cccs1)[C@@H]1CC[C@@H]2[C@@H](CCN2CC2CCC2)O1` is -17.4%; for `Cn1cccc1C(=O)NC[C@]12COC[C@H]1CN(Cc1nccs1)C2` it is -15.1%.
With `O=C(NC[C@]12COC[C@H]1CN(CC1CCOCC1)C2)c1ccccc1`, the cytotoxicity at 70.5 h was found to be 1.78%.
Next, `COc1ccccc1CN1CC[C@]2(C[C@@H](OC)CO2)C1`: -4.33%.
As to `O=C(NCc1cccs1)[C@H]1CC[C@@H]2[C@@H](CCN2C2CCC2)O1`, the cytotoxicity at 70.5 h was -3.48%.
Take `CCn1ncc2c1CN(C(=O)Cc1cccs1)CC2COC` (centres undefined): the cytotoxicity at 70.5 h is -7.83%.
Next, `O=C(NC[C@]12COC[C@H]1CN(Cc1nccs1)C2)c1cscn1`: -3.54%; `CCC1=N[C@@]2(CC[C@@H]3CN(CC4CC4)C[C@@H]32)C(=O)N1CC1CC1`: -20.5%; `CCCS(=O)(=O)N1CCOC2(CCCN(c3ccccn3)C2)C1` (centres undefined): -13.3%.
Turning to `COCCN1CCC2(COCCN(Cc3ccc4c(c3)OCO4)C2)C1` (centres undefined), the cytotoxicity at 70.5 h was -9.54%.
Next, `Cc1noc(C)c1CN1CCc2ncc(CN3CCCC3)n2CC1`: -5.92%; `Cc1cccc(CN2C[C@@H](NC(=O)C3CC3)[C@H]3OCCC[C@H]32)n1`: 4.63%; `CC(=O)N1CCCC1c1nnn2cc(NCc3cccnc3)ccc12` (centres undefined): -18.3%.
With `CN(C[C@@H]1CCC[C@@H]2CN(Cc3cccnc3)C[C@@H]21)C1CC1`, the cytotoxicity at 70.5 h was -1.32%.
On to `CO[C@@H]1CCN(S(=O)(=O)N(C)C)[C@@H]2CN(Cc3ccncc3)C[C@@H]21`, for which the cytotoxicity at 70.5 h is -1.72%.
Turning to `CCN1CC2(CC1=O)CN(Cc1ccncc1)CCN(C(=O)C(C)C)C2` (centres undefined), the cytotoxicity at 70.5 h worked out at 28.2%.
The figure for `Fc1cccnc1O[C@H]1CN(Cc2ccoc2)[C@@H]2CCCO[C@H]12` is -4.66%; for `O=C(C[C@@H]1COC[C@H]2CN(Cc3cccnc3)C[C@@H]12)N1CCOCC1` it is 29.4%; for `O=C(C[C@@H]1COC[C@H]2CN(Cc3ccccn3)C[C@@H]12)N1CCOCC1` it is -2.94%.
In the case of `Fc1cccnc1O[C@@H]1CN(Cc2ccccn2)[C@@H]2CCCO[C@@H]21`, the cytotoxicity at 70.5 h is -10.3%.
The figure for `O=S(=O)(c1cccnc1)N1C[C@H]2CCC[C@@]2(COc2ccccn2)C1` is -7.2%; for `c1cc(CN2C[C@@H]3OCCN(CCN4CCCC4)[C@@H]3C2)co1` it is -10.1%.
For `Cc1nc(CN2CCN(CC3CCOC3)Cc3cccnc32)cs1` (centres undefined), the cytotoxicity at 70.5 h was -8.4%.
On to `CCN(CC)[C@@H]1CN(Cc2nccn2C)[C@@H]2CCCO[C@H]12`, for which the cytotoxicity at 70.5 h is -3.21%.
For the molecule `CO[C@H]1CCN(Cc2cnn(C)c2)[C@@H]2CN(Cc3ccncc3)C[C@H]12`, the cytotoxicity at 70.5 h is -6.62%.
